From ChEMBL document CHEMBL1201862, “PubChem BioAssay data set” (2004)
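Assay format: 96-well plates, 48-hour exposure. Abbreviation: GI50, concentration required for 50% inhibition of growth.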 Activity calls are given as the source filed them. Rule as the data show it: active = GI50 up to about 1.1 µM and inactive = higher.

What was measured:
Experiment in all cases: NCI tumour cell line growth inhibition, 48 h
EKVX = test system: EKVX
DU-145 = test system: DU-145
OVCAR-5 = test system: OVCAR-5
CCRF-CEM = test system: CCRF-CEM
RPMI-8226 = test system: RPMI-8226
SK-MEL-5 = test system: SK-MEL-5
SNB-19 = test system: SNB-19
K562 = test system: K562
HCC 2998 = test system: HCC 2998
MDA-MB-435 = test system: MDA-MB-435
ACHN = test system: ACHN
SW-620 = test system: SW-620
MDA-MB-231 = test system: MDA-MB-231
BT-549 = test system: BT-549
786-0 = test system: 786-0
CAKI-1 = test system: CAKI-1
UACC-257 = test system: UACC-257
HOP-92 = test system: HOP-92
A498 = test system: A498
OVCAR-3 = test system: OVCAR-3

Compound: CC(=O)ON(OC(C)=O)c1ccc(C)cc1
- GI50 (EKVX): > 100 µM (inactive)
- GI50 (DU-145): > 100 µM (inactive)
- GI50 (OVCAR-5): > 100 µM (inactive)
- GI50 (CCRF-CEM): < 0.01 µM (active)
- GI50 (RPMI-8226): > 100 µM (inactive)
- GI50 (SK-MEL-5): > 100 µM (inactive)
- GI50 (SNB-19): > 100 µM (inactive)
- GI50 (K562): > 100 µM (inactive)
- GI50 (HCC 2998): > 100 µM (inactive)
- GI50 (MDA-MB-435): > 100 µM (inactive)
- GI50 (ACHN): > 100 µM (inactive)
- GI50 (SW-620): > 100 µM (inactive)
- GI50 (MDA-MB-231): > 100 µM (inactive)
- GI50 (BT-549): > 100 µM (inactive)
- GI50 (786-0): > 100 µM (inactive)
- GI50 (CAKI-1): > 100 µM (inactive)
- GI50 (UACC-257): > 100 µM (inactive)
- GI50 (HOP-92): > 100 µM (inactive)
- GI50 (A498): > 100 µM (inactive)
- GI50 (OVCAR-3): > 100 µM (inactive)

Compound: FC(F)(F)c1cccnc1Sc1nc2ccccc2s1
- GI50 (EKVX): 63 µM (inactive)
- GI50 (DU-145): > 100 µM (inactive)
- GI50 (OVCAR-5): 34.1 µM (inactive)
- GI50 (CCRF-CEM): > 100 µM (inactive)
- GI50 (RPMI-8226): 45.8 µM (inactive)
- GI50 (SK-MEL-5): > 100 µM (inactive)
- GI50 (SNB-19): > 100 µM (inactive)
- GI50 (K562): > 100 µM (inactive)
- GI50 (HCC 2998): > 100 µM (inactive)
- GI50 (MDA-MB-435): > 100 µM (inactive)
- GI50 (ACHN): > 100 µM (inactive)
- GI50 (SW-620): > 100 µM (inactive)
- GI50 (MDA-MB-231): 63.8 µM (inactive)
- GI50 (BT-549): > 100 µM (inactive)
- GI50 (786-0): > 100 µM (inactive)
- GI50 (CAKI-1): > 100 µM (inactive)
- GI50 (UACC-257): > 100 µM (inactive)
- GI50 (HOP-92): 16.3 µM (inactive)
- GI50 (A498): > 100 µM (inactive)
- GI50 (OVCAR-3): 11.3 µM (inactive)
